Literature values in US6451357B1, “Method for purification of aloesin” (Unigen Pharmaceuticals, Inc., priority 2001, dated 2002).
pIC50: −log10 of the molar value.

How the values were obtained:
[1] = system: tyrosinase; settings: Lineweaver Burk diagram
[2] = system: tyrosinase; settings: in vitro
[3] = system: de-pigmentation of the skin; settings: relative to hydroquinone

## COc1cc(/C=C/C(=O)O[C@@H]2[C@@H](O)[C@H](O)[C@@H](CO)O[C@H]2c2c(O)cc(C)c3c(=O)cc(CC(C)=O)oc23)ccc1O [2″-feruloylaloesin, 2″-O-feruloylaloesin]
[1]
  type of tyrosinase inhibition: non-competitive inhibitor

## CC(=O)Cc1cc(=O)c2c(C)cc(O)c([C@@H]3O[C@H](CO)[C@@H](O)[C@H](O)[C@H]3O)c2o1 [aloesin]
[1]
  type of tyrosinase inhibition: competitive inhibitor
[2]
  tyrosinase inhibition in words: strong inhibitor
[2]; substrate L-DOPA, read-out: concentration capable of 50% inhibition of tyrosinase activity
  pIC50: 3.70

## OC[C@H]1O[C@@H](Oc2ccc(O)cc2)[C@H](O)[C@@H](O)[C@@H]1O [arbutin]
[3]
  quantity required to achieve a similar effect compared to the quantity of hydroquinone used: over 100 times

## O=C1O[C@H]([C@@H](O)CO)C(O)=C1O [ascorbic acid]
[3]
  quantity required to achieve a similar effect compared to the quantity of hydroquinone used: 17 times
